Here are results for 57 molecules from ChEMBL document CHEMBL4513101, “Naegleria gruberi Pathogen Box compounds screening” (2021).

For orientation: inhibition means the drop in the measured response relative to a control, in per cent.

The structures appear in SMILES notation. Active and inactive are the calls of the source. No stated cut-off is given here; in the data, active = inhibition of 80% or more and inactive = less.

For this test, the system named is Naegleria gruberi. The experiment in a line: microbe, parasite or virus in culture. In kind it is functional. As to conditions: NEG-M, CONC 10 uM.
Description: Growth inhibiting activity of Naegleria gruberi in vitro
Take `COc1ccc(-c2cncc3ccc(C(=O)NCCCn4ccnc4)nc23)cc1`: the inhibition at 10 µM is on record as 5.8% (not active).
Regarding `FC(F)(F)c1ccc(N(c2cccnc2)C2CCN(c3ccc(C(F)(F)F)cn3)CC2)cc1`, the inhibition at 10 µM is 80.4% (active).
`O=C(NC1=NCCS1)c1sc2cc(F)ccc2c1Cl`: the inhibition at 10 µM is reported as 34.6% (not active).
On to `O=C(Nc1nnc(-c2ccc(Cl)s2)o1)c1ccc(Cl)s1`, for which the inhibition at 10 µM is on record as 21.9% (not active).
On to `Cc1cc(OCC(=O)Nc2ccc(C(C)C)cc2)n(C)c(=O)c1C#N`, for which the inhibition at 10 µM was 18.6% (not active).
Turning to `COCC(C)NC(=O)CSc1ncnc2sc(-c3ccccc3)cc12` (configuration not stated), the inhibition at 10 µM is on record as 45.7% (not active).
On to `O=C(Nc1ccnc(-c2cccnc2)n1)c1cc(C(F)(F)F)cc(C(F)(F)F)c1`, for which the inhibition at 10 µM is listed as 44.3% (not active).
Turning to `Cc1ccc(S(=O)(=O)N2CCN(C(=O)c3cc(-c4ccccc4)n[nH]3)CC2)cc1`, the inhibition at 10 µM is on record as 22.3% (not active).
On to `FC(F)(F)c1cnc(Sc2nnc(-c3ccncc3)o2)c(Cl)c1`, for which the inhibition at 10 µM is 42.8% (not active).
Consider `CCN(CC)S(=O)(=O)c1ccc(C(=O)Nc2cc(C)nn2-c2nc(C)c(C)c(=O)[nH]2)cc1`, for which the inhibition at 10 µM was 41.8% (not active).
The value for `O=C1Nc2ccc(Br)cc2C12NCCc1c2[nH]c2ccccc12` (configuration not stated) was 33.5% (not active); that for `COc1nc2ccc(Br)cc2cc1[C@@H](c1ccccc1)[C@@](O)(CCN(C)C)c1cccc2ccccc12` [BEDAQUILINE] was 56.3% (not active); that for `COc1ccc(C2(C(=O)Nc3ccc(Br)cc3)CCCC2)cc1` was 11.1% (not active).
As for `Oc1c(I)cc(I)c2cccnc12` [IODOQUINOL], the inhibition at 10 µM is 51.6% (not active).
`N=C(N)c1ccc(-c2cc(-c3ccccc3)on2)cc1`: the inhibition at 10 µM is recorded as 26.5% (not active).
As for `Nc1ncnc2[nH]nc(Cc3cccc4ccccc34)c12`, the inhibition at 10 µM is listed as 24% (not active).
Take `Cc1[nH]c2ccccc2c1C(c1cccs1)N1CCN(C)CC1` (configuration not stated): the inhibition at 10 µM is reported as 23.9% (not active).
Turning to `CCCCN(CCCC)c1c(C#N)cc(S(=O)(=O)Nc2ccccc2)cc1C#N`, the inhibition at 10 µM is reported as 23.9% (not active).
For the molecule `O=S(=O)(c1ccc(Cl)cc1)N1CCN(C(=S)NCc2ccco2)CC1`, the inhibition at 10 µM is 38% (not active).
On to `Brc1cncc(-c2cc(NCCCn3ccnc3)nc(-c3ccccc3)n2)c1`, for which the inhibition at 10 µM was 33.8% (not active).
With `c1coc(CNc2nc(N3CCCCC3)nc3ccccc23)c1`, the inhibition at 10 µM was 56.5% (not active).
As for `Cc1ccc(NC(=O)c2nc[nH]c2C(=O)Nc2nc3ccccc3[nH]2)c(C)c1`, the inhibition at 10 µM was 22.8% (not active).
For `CC(C)(C)c1cc(C(=O)Nc2cccnc2)cc(C(=O)Nc2cccnc2)c1`, the inhibition at 10 µM is recorded as 28% (not active).
Next, `c1cc(C2=NCCN2)cc(-c2cc(-c3ccc(C4=NCCN4)cc3)no2)c1`: 24.2% (not active); `O=C(C1CCCCC1)N1CC(=O)N2CCc3ccccc3C2C1` (configuration not stated) [PRAZIQUANTEL]: 41.5% (not active); `O=C(NCCN1CCCC1)c1cc(NCCCCN2CCC(F)(F)CC2)nc2ccc(Cl)cc12`: 4.3% (not active).
Take `CC1COC(Cn2cncn2)(c2ccc(Oc3ccc(Cl)cc3)cc2Cl)O1` (configuration not stated) [DIFENOCONAZOLE]: the inhibition at 10 µM is reported as 73.3% (not active).
Consider `O=C(c1cc2ccccc2o1)N1CCN(Cc2ccc3c(c2)OCO3)CC1`, for which the inhibition at 10 µM is reported as 28.6% (not active).
`N#Cc1nc(-c2ccccc2F)oc1NCCc1ccccc1`: the inhibition at 10 µM is 4.7% (not active).
For the molecule `COc1cccc(CC(=O)N2CCC(n3c(C)nc4ccc(F)cc43)CC2)c1`, the inhibition at 10 µM is reported as 19.3% (not active).
As to `COc1ccc(-c2onc(C(F)(F)F)c2-c2ccc(Cl)cc2)c(O)c1`, the inhibition at 10 µM is 45.5% (not active).
For the molecule `CCCn1c(NC(=O)c2ccc3ccccc3n2)nc2ccccc21`, the inhibition at 10 µM is given as 22.6% (not active).
`CC(C)n1ncc2c(C(=O)NCC(c3cccs3)N3CCOCC3)cc(-c3ccccc3)nc21` (configuration not stated): the inhibition at 10 µM was 48.6% (not active).
Take `CC(C)(C)n1nc(Cc2cccc3ccccc23)c2c(N)ncnc21`: the inhibition at 10 µM was 13.8% (not active).
`CCc1nc2ccccc2n1CC(O)COc1cc(C)ccc1Cl` (configuration not stated): the inhibition at 10 µM is listed as 25.3% (not active).
For `Cc1cc(Cl)ccc1NC(=O)CCc1ccc(S(=O)(=O)NCC(C)C)cc1`, the inhibition at 10 µM is given as 13.9% (not active).
Turning to `CNC(=O)CNc1nc(-c2ccccn2)nc2scc(-c3ccccc3)c12`, the inhibition at 10 µM is 22.6% (not active).
Next, `FC(F)(F)c1nnc2ccc(Cl)nn12`: 16.8% (not active).
Consider `CC(C)c1ncc(-c2ccncc2)c([C@H]2CC[C@H](CNC(=O)c3cccnc3)CC2)n1`, for which the inhibition at 10 µM is recorded as 32.5% (not active).
As for `COc1ccc(C2=NCCN2)cc1-c1cn(-c2cccc(C3=NCCN3)c2)nn1`, the inhibition at 10 µM is 21.7% (not active).
For `Cc1noc(C)c1C(=O)N1CCCC(c2[nH]c3c(C)cccc3c2-c2ccncc2)C1` (configuration not stated), the inhibition at 10 µM is 27.1% (not active).
Next, `Cc1cc2ccccc2n1CC(=O)N1CC(C(=O)N2CCCCC2)Oc2ccccc21` (configuration not stated): 52.5% (not active); `COc1ccc(OC(C)C(=O)Nc2ccc(Cl)cc2C)cc1` (configuration not stated): 34% (not active); `Cc1cc(NC(=O)c2ccc(S(=O)(=O)N(Cc3ccccc3)C(C)C)cc2)no1`: 0% (not active).
`CCCCc1ccc(NC(=O)Nc2ccc(O[C@H]3CCCC[C@@H]3N(C)c3ccccc3)c(F)c2)cc1`: the inhibition at 10 µM is given as 41.1% (not active).
As for `CC(C)C(Oc1cccc2ccccc12)C(=O)O` (configuration not stated), the inhibition at 10 µM is listed as 1.3% (not active).
For `CCOc1ccc(OCC(=O)Nc2cc(C)cc(C)c2)cc1`, the inhibition at 10 µM is 0% (not active).
Turning to `COc1ccccc1CNC(=O)c1cc(C2CC2)nc2c1cnn2C(C)C`, the inhibition at 10 µM is 49.8% (not active).
Regarding `Nc1ccc2ncnc(Nc3ccc(OCc4cccc(F)c4)c(Cl)c3)c2c1`, the inhibition at 10 µM is listed as 10.6% (not active).
In the case of `CO[C@@H](C(=O)N1Cc2[nH]nc(NC(=O)c3ccc(N4CCN(C)CC4)cc3)c2C1)c1ccccc1` [DANUSERTIB], the inhibition at 10 µM was 41.3% (not active).
In the case of `NCCC(O)C(=O)N[C@@H]1C[C@H](N)[C@@H](OC2O[C@H](CN)[C@@H](O)[C@H](O)[C@H]2O)[C@H](O)C1OC1O[C@H](CO)[C@@H](O)[C@H](N)[C@H]1O` (some centres not stated), the inhibition at 10 µM is listed as 0% (not active).
`COc1ccc(N(CCc2cccc(C)n2)C(C)=O)cc1`: the inhibition at 10 µM was 19.6% (not active).
With `OCCc1ccc(Nc2nccc(-c3nnc4ccccn34)n2)cc1`, the inhibition at 10 µM is 18.7% (not active).
Next, `O=C(Nc1nc(-c2ccccn2)cs1)C1CC1c1ccccc1F` (configuration not stated): 46.3% (not active); `CN1CCC(c2cc(-c3ccncc3)c(-c3ccc(F)cc3)[nH]2)CC1`: 0% (not active); `Cc1cc(C)cc(COc2ccc3c(C)c(CCC(=O)O)c(=O)oc3c2C)c1`: 40.9% (not active).
The value for `COc1cccn2c(C(=O)N3CCCCC3)c(C(F)(F)F)nc12` was 17% (not active).
